Experimental data reported in the NIST ThermoML archive (doi:10.1016/j.jct.2017.03.019).
± gives the expanded uncertainty stated by the source. Values belong to the compound of their own block, whether it stands above or below them.

Experiments:
[1] = refractive index (Na D-line) (dimensionless); settings: 298.2 K; 101.33 kPa; Liquid; Standard Abbe refractometry
[2] = 298.2 K; 101.33 kPa; Liquid; Vibrating tube method
[3] = wn = mass fraction of the nth substance listed; settings: 298.2 K, 100 kPa, Liquid, Vibrating tube method
[4] = refractive index (Na D-line) (dimensionless); wn = mass fraction of the nth substance listed; settings: 298.2 K, 100 kPa, Liquid, Standard Abbe refractometry

Structure (SMILES): CCC(C)O (stereo not given) [butan-2-ol]
refractive index [1]: 1.3952 ± 0.0016
mass density [2]: 802.49 ± 0.95 kg/m3

Structure (SMILES): CCCCO [butan-1-ol] + O
mass density ([3]; w2 = 0.2058): 844.74 ± 3.5 kg/m3
mass density ([3]; w2 = 0.9265): 986.16 ± 3.8 kg/m3
refractive index ([4]; w2 = 0.2058): 1.3885 ± 0.0036
refractive index ([4]; w2 = 0.9265): 1.3402 ± 0.0036

Structure (SMILES): CCC(C)O (stereo not given) [butan-2-ol] + O
mass density ([3]; w2 = 0.3523): 874.34 ± 3.6 kg/m3
mass density ([3]; w2 = 0.8131): 968.42 ± 3.7 kg/m3
refractive index ([4]; w2 = 0.3523): 1.3812 ± 0.0036
refractive index ([4]; w2 = 0.8131): 1.3513 ± 0.0036

Structure (SMILES): CCCCO [butan-1-ol]
refractive index [1]: 1.3973 ± 0.0032
mass density [2]: 805.81 ± 1.9 kg/m3

Continued, values first:

refractive index [1]: 1.4044 ± 0.0032
mass density [2]: 805.37 ± 1.9 kg/m3
Structure (SMILES): CCCC(C)O (stereo not given) [pentan-2-ol]

mass density ([3]; w2 = 0.1177): 827.45 ± 3.5 kg/m3
mass density ([3]; w2 = 0.9477): 989.77 ± 3.8 kg/m3
refractive index ([4]; w2 = 0.1177): 1.3992 ± 0.0036
refractive index ([4]; w2 = 0.9477): 1.3377 ± 0.0036
Structure (SMILES): CCCC(C)O (stereo not given) [pentan-2-ol] + O

refractive index [1]: 1.3325 ± 0.0032
mass density [2]: 997.17 ± 1.9 kg/m3
Structure (SMILES): O [water]
